Results taken from PubChem BioAssay AID1919006 (Molecular Pharmacology Branch, DTP, NCI, 2023).

Tested on: 885512-296-R-J2-PDC complex spheroid growth, % test/control
Experiment: Anticancer human tumor 885512-296-R-J2-PDC patient-derived breast carcinoma cell line growth inhibition [AhR]
Conditions: for IC50: curve of first compound; for viability, T/C: stronger effect = lower value
Description: Multicellular complex tumor spheroid response to aryl hydrocarbon receptor antagonists in combination with a variety of drugs and investigational agents in selected tumor cell lines
The current study was undertaken to assess response to aryl hydrocarbon receptor antagonists in combination with standard-of-care drugs and investigational agents in solid tumor complex spheroid models. Complex spheroids include a stromal component modeled by human endothelial cells (HUVEC) and fibroblasts modeled by human mesenchymal stem cells (MSCs). The concentration ranges selected for each drug and investigational agent were based upon clinically achievable concentrations if the clinical Cmax of the agent was known.
Compounds. The drugs and investigational agents: BAY 2416964 (NSC825713), GNF351 (NSC835774), CH-223191 (NSC835775), CPI-455 (NSC825282), aza-TdCyd (NSC777586), decitabine (NSC127716), belinostat (NSC758774), entinostat (NSC756642), pevonedistat (NSC761192), tazemetostat (NSC777109), talazoparib (NSC765396), olaparib (NSC753686), selinexor (NSC780203), nedisertib (M3814, NSC802822), bortezomib (NSC756655), venetoclax (NSC766270), doxorubicin (NSC123127), elimusertib (BAY189344, NSC800525), ceralasertib (AZD6738, NSC777638), TAK-243 (NSC785004), alisertib (NSC759677), etoposide (NSC141540), topotecan (NSC609699), eribulin (NSC707389), gemcitabine (NSC613327), carboplatin (NSC241240), cisplatin (NSC119875), and SN-38 (NSC673596) were obtained from the National Cancer Institute (NCI) Developmental Therapeutics Program Chemical Repository (32). The FDA-approved anticancer drug set is available from the Developmental Therapeutics Program at https://dtp.cancer.gov/organization/dscb/obtaining/available plates.htm. […] The stock solutions were prepared in dimethyl sulfoxide (DMSO, Sigma-Aldrich, St. Louis, MO, cat. D2650), except for the platinum compounds which were prepared in saline (Quality Biological, Gaithersburg, MD, cat. 114-055-101), at 800-fold the tested concentration and stored at -70 degrees C prior to their use. All drugs and investigational agents were tested over a range starting from a high concentration at or near the clinical Cmax and decreasing in half-log increments. If the clinical Cmax for an agent had not been determined, the highest concentration tested was 10 microM (Table 1).
Cell Culture. All cells were maintained in an incubator at 37 degrees C and 5% CO2 with 95% humidity. The PDC lines were cultured according to standard operating procedures established by the NCI PDMR (https://pdmr.cancer.gov). Briefly, all PDCs were thawed and cultured in Matrigel-coated flasks prepared with a working solution of 1X Ham's F-12 nutrient mix, without supplementation (Invitrogen, Waltham, MA, cat. 11765054), 100 U/mL penicillin-streptomycin (Invitrogen, cat. 15140122), and 2.5% Matrigel (Corning Inc., Corning, NY, cat. 354248) for the first three passages. All PDCs were cultured in complete DMEM/F-12 media containing advanced DMEM/F-12 (Invitrogen, cat. 12634028), 4.9% defined fetal bovine serum, heat inactivated (HyClone Laboratories Inc., Logan, UT, cat. SH30070.03HI), 389 ng/mL hydrocortisone (Sigma-Aldrich, cat. H4001), 9.7 ng/mL human EGF recombinant protein (Invitrogen, cat. PHG0313), 23.4 microg/mL adenine (Sigma-Aldrich, cat. A2786), 97.3 U/mL penicillin-streptomycin (Invitrogen, cat. 15140122), 1.9 mM L-glutamine (Invitrogen, cat. 25030081), and 9.7 microM Y-27632 dihydrochloride (Tocris Bioscience, Bristol, United Kingdom, cat. 1254). The PDCs were cultured in complete DMEM/F12 media without 10 microM Y-27632 dihydrochloride for at least two passages prior to the screen. The established cell lines NCI-H1341 and […] were cultured in DMEM/F-12, HEPES (Invitrogen, cat. 11330032), 5% defined fetal bovine serum (HyClone Laboratories Inc., cat. SH30070.03), ITS premix universal culture supplement [insulin (5 microg/mL), transferrin (5 microg/mL), and selenious acid (5 ng/mL)] […]
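Further: spheroids exposed to compounds for seven days.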

For `CC1COCCN1c1cc(-c2ccnn2C)c2ccnc(-c3ccn[nH]3)c2n1` (stereo not given) + Cc1cncc(-c2nc(NCCc3c[nH]c4ccccc34)c3ncn(C(C)C)c3n2)c1, the IC50 (second compound 0.1 µM) was 34.4 nM, the IC50 (second compound 0.316 µM) was 33.4 nM and the IC50 (second compound 1 µM) was 22.1 nM. The IC50 (second compound 3.16 µM) was 3.22 nM, the IC50 (second compound 10 µM) was less than 3.16 nM and the viability, T/C (second compound 0.1 µM, first compound 0.00316 µM) was 99.4%. The viability, T/C (second compound 0.1 µM, first compound 0.01 µM) was 85.3%, the viability, T/C (second compound 0.1 µM, first compound 0.0316 µM) was 55.2% and the viability, T/C (second compound 0.1 µM, first compound 0.1 µM) was 9.6%. It also gave a viability, T/C (second compound 0.1 µM, first compound 0.316 µM) of 3.2%, a viability, T/C (second compound 0.1 µM, first compound 1 µM) of 2.72% and a viability, T/C (second compound 0.316 µM, first compound 0.00316 µM) of 83.1%. For the same compound, the viability, T/C (second compound 0.316 µM, first compound 0.01 µM) was 95.9%, the viability, T/C (second compound 0.316 µM, first compound 0.0316 µM) was 51.9% and the viability, T/C (second compound 0.316 µM, first compound 0.1 µM) was 9.85%. It also gave a viability, T/C (second compound 0.316 µM, first compound 0.316 µM) of 3.26%, a viability, T/C (second compound 0.316 µM, first compound 1 µM) of 2.57% and a viability, T/C (second compound 1 µM, first compound 0.00316 µM) of 74.4%. The viability, T/C (second compound 1 µM, first compound 0.01 µM) was 71.3%, the viability, T/C (second compound 1 µM, first compound 0.0316 µM) was 40.3% and the viability, T/C (second compound 1 µM, first compound 0.1 µM) was 7.24%. The viability, T/C (second compound 1 µM, first compound 0.316 µM) was 2.89%, the viability, T/C (second compound 1 µM, first compound 1 µM) was 2.37% and the viability, T/C (second compound 3.16 µM, first compound 0.00316 µM) was 48.9%. It also gave a viability, T/C (second compound 3.16 µM, first compound 0.01 µM) of 50.1%, a viability, T/C (second compound 3.16 µM, first compound 0.0316 µM) of 33.7% and a viability, T/C (second compound 3.16 µM, first compound 0.1 µM) of 8.94%. The viability, T/C (second compound 3.16 µM, first compound 0.316 µM) was 2.55%, the viability, T/C (second compound 3.16 µM, first compound 1 µM) was 2.78% and the viability, T/C (second compound 10 µM, first compound 0.00316 µM) was 13.3%. The viability, T/C (second compound 10 µM, first compound 0.01 µM) was 15.6%, the viability, T/C (second compound 10 µM, first compound 0.0316 µM) was 9.95% and the viability, T/C (second compound 10 µM, first compound 0.1 µM) was 6.27%. It also gave a viability, T/C (second compound 10 µM, first compound 0.316 µM) of 3.04% and a viability, T/C (second compound 10 µM, first compound 1 µM) of 2.87%.
